Test results reported in patent US12550899B2, “Topramezone derivative and use thereof” (priority 2023, dated 2026).

What was measured:
Assay type in all cases: in vivo
Portulaca oleracea = assay: Laboratory bioactivity efficacy test 2.2 (foliar spray); conditions: for GR50 (95% confidence interval) / GR90 (95% confidence interval): fresh weight control efficacy 20 days post-application
Protocol: (§1) • grassy weeds: Digitaria sanguinalis, Eleusine indica, Echinochloa crusgalli; • Broadleaf weeds: Portulaca oleracea, Abutilon theophrasti medicus. 2.2.2 Test Conditions
(§2) The soil used for the test was a mixture of surface 20 cm loam and vermiculite, mixed in a volume ratio of 3:1 to form a culture soil. The test weeds were cultured in a glass greenhouse with a temperature ranging from 25° C. to 35° C. and under natural light.
(§3) Quantified seeds of Digitaria sanguinalis, Eleusine indica, Echinochloa crusgalli, Portulaca oleracea, and Abutilon theophrasti medicus were sown in plastic pots with a diameter of 9 cm, and covered with 1-2 mm of soil. The ports were then placed in enamel trays filled with water, and watered by bottom irrigation. After the water seeped to the soil surface, the pots were transferred to the glass greenhouse for standby.
(§4) Five dosages were set for Compound I, Compound II and the control herbicide Topramezone, which were 3.75, 7.5, 15, 30 and 60 grams of active ingredient per hectare respectively. In addition, a blank control was also prepared.
(§5) The required amount of the herbicide was accurately measured out and directly added with water, which was diluted to the required dosage by using the serial dilution method for standby.
(§6) The test was conducted on grassy weeds at the two-leaf and one-heart stage, Abutilon theophrasti medicus at the 2-true-leaf stage, and Portulaca oleracea at the 3-5-leaf stage, with the stems and leaves both sprayed uniformly. The ASS-4 automatic control spraying system with a fan-shaped nozzle was used indoors for herbicide application. Depending on the nozzle pressure and flow rate, 50 mL of herbicide solution was applied to a spraying area of 1.1 m^2 (which was equivalent to the water consumption of 30 L per mu). The system's operating speed was calibrated. The plastic pots to be treated were arranged evenly on the spraying platform to ensure uniform treatment. The spray pressure was set to 0.35 MPa, and the flow rate of the fan-shaped nozzle was set to 800 mL/min. The spraying was carried out in sequence from the low dosage to the high dosage. Each treatment was repeated two to four times.
(§7) The herbicide was applied once. After spraying, the pots were air-dried for one day and then placed in the glass greenhouse. Regular watering was conducted to maintain moisture.
(§8) The damage symptoms of the weeds (such as growth inhibition, chlorosis, malformation, etc.) were carefully recorded at 3, 7, 10, and 20 days after herbicide application. A visual comparison of the herbicide effectiveness was made. At 20 days post-application, the fresh weight of the aboveground parts of the weeds from each treatment group was measured, and the fresh weight control efficacy was calculated.
(§9) The treatment results were calculated according to the following formula: weed fresh weight control efficacy (%)=(control fresh weight−treatment fresh weight)/control fresh weight×100.
(§10) A DPS statistical software was used to conduct regression analysis on the logarithmic values of the herbicide dosage and the probit values of the weed fresh weight control efficacy, and the correlation coefficient, GR50, GR90, and the 95% confidence interval were calculated.

Echinochloa crusgalli = assay: as above; conditions: fresh weight control efficacy 20 days post-application
Protocol: as §1, §2, §3, §4, §5, §6, §7, §8, §9, §10

[1] = test system: Abutilon theophrasti medicus; assay: as above; conditions: for Visual observation of weeds: 3 to 7 days after application, broadleaf weeds like Abutilon theophrasti medicus; for GR90 (95% confidence interval) / GR50 (95% confidence interval): fresh weight control efficacy 20 days post-application
Protocol: as §1, §2, §3, §4, §5, §6, §7, §8, §9, §10

Eleusine indica = assay: as above; conditions: fresh weight control efficacy 20 days post-application
Protocol: as §1, §2, §3, §4, §5, §6, §7, §8, §9, §10

Digitaria sanguinalis = assay: as above; conditions: fresh weight control efficacy 20 days post-application
Protocol: as §1, §2, §3, §4, §5, §6, §7, §8, §9, §10

[2] = test system: test weeds (grassy weeds, sedge, broadleaf weeds); assay: Laboratory bioactivity efficacy test 2.1, symptoms on the test weeds; conditions: test 2.1 weeds
Excerpt: (§11) Refer to the “Pesticides guidelines for laboratory bioactivity tests Part 4: Foliar spray application test for herbicide activity, NY/T 1155.4-2006”.
(§12) • grassy weeds: Setaria viridis, Chloris virgata; • sedge: Cyperus rotundus; • Broadleaf weeds: Amaranthus retroflexus, Chenopodium album, Acalypha australis, Commelina communis, Convolvulus arvensis, Cirsium setosum, and Eclipta prostrata. 2.1.3 Test Conditions
(§13) The soil used for the test was a mixture of surface 20 cm loam and vermiculite, mixed in a volume ratio of 3:1 to form a culture soil. The test corn was cultured in a glass greenhouse with a temperature ranging from 25° C. to 35° C. and under natural light.
(§14) A measured quantity of weed seeds were sown in plastic pots with a diameter of 9 cm, and covered with 1-2 mm of soil. The ports were then placed in enamel trays filled with water, and watered by bottom irrigation. After sowing, the pots were transferred to the glass greenhouse for cultivation and growth.
as §4
(§15) The required amount of the herbicide was accurately measured out, an appropriate amount of emulsifier and organic solvent were added to dissolve the herbicide, and then a certain amount of water was added therein until the herbicide was diluted to the required dosage by using the serial dilution method for standby.
(§16) The fresh weight of each treatment was surveyed 14 days after the application of the herbicide. The fresh weight control efficacy was calculated according to the following formula: fresh weight control efficacy (%)=(control fresh weight−treatment fresh weight)/control fresh weight×100.

Convolvulus arvensis = assay: Laboratory bioactivity efficacy test 2.1 (foliar spray); conditions: for GR50 / GR90: fresh weight control efficacy 14 days after application
Excerpt: as §11, §12, §13, §14, §4, §15, §16
(§17) A DPS statistical software was used to conduct regression analysis on the logarithmic values of the herbicide dosage and the probit values of the corn fresh weight control efficacy, and the correlation coefficient, GR50, GR90, and the 95% confidence interval were calculated.

Chenopodium album = assay: as above; conditions: for GR50 / GR90: fresh weight control efficacy 14 days after application
Excerpt: as §11, §12, §13, §14, §4, §15, §16, §17

Eclipta prostrata = assay: as above; conditions: for GR50 / GR90: fresh weight control efficacy 14 days after application
Excerpt: as §11, §12, §13, §14, §4, §15, §16, §17

Acalypha australis = assay: as above; conditions: for GR50 / GR90: fresh weight control efficacy 14 days after application
Excerpt: as §11, §12, §13, §14, §4, §15, §16, §17

Cirsium setosum = assay: as above; conditions: for GR50 / GR90: fresh weight control efficacy 14 days after application
Excerpt: as §11, §12, §13, §14, §4, §15, §16, §17

Setaria viridis = assay: as above; conditions: for GR50 / GR90: fresh weight control efficacy 14 days after application
Excerpt: as §11, §12, §13, §14, §4, §15, §16, §17

Chloris virgata = assay: as above; conditions: for GR50 / GR90: fresh weight control efficacy 14 days after application
Excerpt: as §11, §12, §13, §14, §4, §15, §16, §17

Compound: COC(=O)OC(C)Oc1c(C(=O)c2ccc(S(C)(=O)=O)c(C3=NOCC3)c2C)cnn1C (centres unmarked) [Compound I, 1-((4-(3-(4,5-dihydroisoxazol-3-yl)-2-methyl-4-(methylsulfonyl)benzoyl)-1-methyl-1H-pyrazol-5-yl)oxy)ethyl methyl carbonate]
- Control efficacy compared with Topramezone (in words) (Portulaca oleracea): significantly better control efficacy
- Efficacy relative to that of Topramezone (Portulaca oleracea): approximately 3.8 times
- GR50 (95% confidence interval) (Portulaca oleracea): 3.83 (2.36-5.16) g a.i./ha
- GR90 (95% confidence interval) (Portulaca oleracea): 9.29 (7.46-10.81) g a.i./ha
- GR50 (Echinochloa crusgalli): 6.03 g a.i./ha
- GR90 (Echinochloa crusgalli): 11.04 g a.i./ha
- Visual observation of weeds [1]: directly dried up and died
- GR90 (95% confidence interval) ([1]; Abutilon theophrasti Medicago): 9.48 (4.30-13.21) g a.i./ha
- GR50 (95% confidence interval) ([1]; Abutilon theophrasti medicus): 3.16 (0.37-5.92) g a.i./ha
- GR50 (Eleusine indica): 2.71 g a.i./ha
- GR90 (Eleusine indica): 14.85 g a.i./ha
- GR50 (Digitaria sanguinalis): 10.92 g a.i./ha
- GR90 (Digitaria sanguinalis): 35.88 g a.i./ha
- Symptoms on the test weeds [2]: clear pesticidal efficacy symptoms
- Control efficacy compared with Topramezone (in words) (Convolvulus arvensis): significantly better control efficacy
- Efficacy relative to that of Topramezone (Convolvulus arvensis): approximately 2 times
- GR50 (Convolvulus arvensis): 1.81 g a.i./ha
- GR90 (Convolvulus arvensis): 31.82 g a.i./ha
- Control efficacy compared with Topramezone (in words) (Chenopodium album): significantly better control efficacy
- Efficacy relative to that of Topramezone (Chenopodium album): approximately 2 times
- GR50 (Chenopodium album): 1.22 g a.i./ha
- GR90 (Chenopodium album): 5.98 g a.i./ha
- Control efficacy compared with Topramezone (in words) (Eclipta prostrata): significantly better control efficacy
- Efficacy relative to that of Topramezone (Eclipta prostrata): approximately 2 times
- GR50 (Eclipta prostrata): 2.30 g a.i./ha
- GR90 (Eclipta prostrata): 11.62 g a.i./ha
- Control efficacy compared with Topramezone (in words) (Acalypha australis): significantly better control efficacy
- Efficacy relative to that of Topramezone (Acalypha australis): approximately 2 times
- GR50 (Acalypha australis): 2.42 g a.i./ha
- GR90 (Acalypha australis): 7.55 g a.i./ha
- Control efficacy compared with Topramezone (in words) (Cirsium setosum): significantly better control efficacy
- Efficacy relative to that of Topramezone (Cirsium setosum): approximately 2 times
- GR50 (Cirsium setosum): 5.56 g a.i./ha
- GR90 (Cirsium setosum): 20.60 g a.i./ha
- Control efficacy compared with Topramezone (in words) (Setaria viridis): better control efficacy
- Efficacy relative to that of Topramezone (Setaria viridis): approximately 1.5 times
- GR50 (Setaria viridis): 3.96 g a.i./ha
- GR90 (Setaria viridis): 11.42 g a.i./ha
- Control efficacy compared with Topramezone (in words) (Chloris virgata): better control efficacy
- Efficacy relative to that of Topramezone (Chloris virgata): approximately 1.5 times
- GR50 (Chloris virgata): 2.25 g a.i./ha
- GR90 (Chloris virgata): 10.81 g a.i./ha

Compound: Cc1c(C(=O)c2cnn(C)c2OC(=O)C(C)(C)C)ccc(S(C)(=O)=O)c1C1=NOCC1 [Compound II, 4-(3-(4,5-dihydroisoxazol-3-yl)-2-methyl-4-(methylsulfonyl)benzoyl)-1-methyl-1H-pyrazol-5-yl pivalate]
- Control efficacy compared with Topramezone (in words) (Portulaca oleracea): slightly better control efficacy
- GR50 (95% confidence interval) (Portulaca oleracea): 5.57 (4.07-7.00) g a.i./ha
- GR90 (95% confidence interval) (Portulaca oleracea): 28.20 (23.41-35.73) g a.i./ha
- GR50 (Echinochloa crusgalli): 6.13 g a.i./ha
- GR90 (Echinochloa crusgalli): 12.64 g a.i./ha
- Visual observation of weeds [1]: directly dried up and died
- GR50 (95% confidence interval) ([1]; Abutilon theophrasti Medicago): 1.19 (0.26-2.46) g a.i./ha
- GR90 (95% confidence interval) ([1]; Abutilon theophrasti Medicago): 7.90 (4.76-10.66) g a.i./ha
- GR50 (Eleusine indica): 3.79 g a.i./ha
- GR90 (Eleusine indica): 19.79 g a.i./ha
- GR50 (Digitaria sanguinalis): 12.53 g a.i./ha
- GR90 (Digitaria sanguinalis): 48.19 g a.i./ha
- Symptoms on the test weeds [2]: clear pesticidal efficacy symptoms
- GR50 (Convolvulus arvensis): 7.31 g a.i./ha
- GR90 (Convolvulus arvensis): 58.43 g a.i./ha
- GR50 (Chenopodium album): 2.83 g a.i./ha
- GR90 (Chenopodium album): 11.74 g a.i./ha
- GR50 (Eclipta prostrata): 4.67 g a.i./ha
- GR90 (Eclipta prostrata): 23.27 g a.i./ha
- GR50 (Acalypha australis): 6.04 g a.i./ha
- GR90 (Acalypha australis): 16.46 g a.i./ha
- GR50 (Cirsium setosum): 15.14 g a.i./ha
- GR90 (Cirsium setosum): 48.92 g a.i./ha
- GR50 (Setaria viridis): 6.77 g a.i./ha
- GR90 (Setaria viridis): 19.04 g a.i./ha
- GR50 (Chloris virgata): 4.41 g a.i./ha
- GR90 (Chloris virgata): 15.22 g a.i./ha

Compound: Cc1c(C(=O)c2cnn(C)c2O)ccc(S(C)(=O)=O)c1C1=NOCC1 [Topramezone]
- GR50 (95% confidence interval) (Portulaca oleracea): 7.56 (6.00-9.07) g a.i./ha
- GR90 (95% confidence interval) (Portulaca oleracea): 35.74 (29.42-46.03) g a.i./ha
- GR50 (Echinochloa crusgalli): 6.52 g a.i./ha
- GR90 (Echinochloa crusgalli): 12.92 g a.i./ha
- Visual observation of weeds [1]: directly dried up and died
- GR50 (95% confidence interval) ([1]; Abutilon theophrasti Medicago): 2.02 (0.77-3.38) g a.i./ha
- GR90 (95% confidence interval) ([1]; Abutilon theophrasti Medicago): 8.83 (6.22-11.10) g a.i./ha
- GR50 (Eleusine indica): 2.75 g a.i./ha
- GR90 (Eleusine indica): 16.07 g a.i./ha
- GR50 (Digitaria sanguinalis): 10.09 g a.i./ha
- GR90 (Digitaria sanguinalis): 36.27 g a.i./ha
- Symptoms on the test weeds [2]: clear pesticidal efficacy symptoms
- GR50 (Convolvulus arvensis): 4.63 g a.i./ha
- GR90 (Convolvulus arvensis): 66.46 g a.i./ha
- GR50 (Chenopodium album): 3.22 g a.i./ha
- GR90 (Chenopodium album): 12.76 g a.i./ha
- GR50 (Eclipta prostrata): 6.33 g a.i./ha
- GR90 (Eclipta prostrata): 23.72 g a.i./ha
- GR50 (Acalypha australis): 5.27 g a.i./ha
- GR90 (Acalypha australis): 16.92 g a.i./ha
- GR50 (Cirsium setosum): 15.89 g a.i./ha
- GR90 (Cirsium setosum): 49.41 g a.i./ha
- GR50 (Setaria viridis): 6.72 g a.i./ha
- GR90 (Setaria viridis): 19.16 g a.i./ha
- GR50 (Chloris virgata): 3.33 g a.i./ha
- GR90 (Chloris virgata): 15.81 g a.i./ha
